Laboratory results published in patent US11547767B2, “99mTc-EDDA/HYNIC-iPSMA as a radiopharmaceutical for detecting the overexpression of prostate-specific membrane antigen” (INSTITUTO NACIONAL DE INVESTIGACIONES NUCLEARES, priority 2016, dated 2023).

How the values were obtained:
[1] = assay type: physicochemical
Method: HYNIC-iPSMA (37.5 μg) was formulated as a lyophilized dosage form containing 10 mg of EDDA, 20 mg of tricine, 20 μg of stannous chloride and 50 mg of mannitol. This formulation, on being reconstituted with 1 mL of 0.2 M phosphate buffer solution, pH 7 and 1 mL of solution of sodium pertechnetate (^99mTcO4Na), obtained in situ from a generator of ^99Mo/^99mTc, produces the compound to be patented ^99mTc-EDDA/HYNIC-iPSMA (FIG. 1) with radiochemical purity greater than 98% determined by reverse-phase HPLC, which has the corresponding radiochromatogram (FIG. 3).
(§1) The radiopharmaceutical remains stable with radiochemical purity greater than 95%, 24 h after labeling. In-vitro tests of stability in human serum show binding to serum proteins of 8.3±2.1% and high radiochemical stability (>90%).

[2] = assay type: in vitro ADME, human
Method: as §1

LNCaP tumors = test system: LNCaP tumors; set-up: species or system mice; details: mouse, in vivo
Text: (§2) This image confirms, and is the main evidence, that because of its increased properties of affinity owing to the lipophilicity of the incorporated HYNIC molecule, ^99mTc-EDDA/HYNIC-iPSMA is able to equal the high imaging sensitivity of the PET radionuclides in the detection of tumoral lesions that overexpress PSMA.

[3] = human, in vivo
Text: as §2

[4] = biological target: T1, PSMA overexpressed in prostate cancer cells (Homo sapiens, UniProt Q04609); experiment: SPECT/PET imaging in patients with prostate cancer; assay type: in vivo; details: for detection of tumors and metastases (PET and SPECT image, FIG. 6): same patient with advanced metastatic prostate cancer given both radiopharmaceuticals
T1 construct: detect in vivo PSMA overexpressed in prostate cancer cells; from tissue; host or cells: tumours and metastases in prostate cancer patients (in vivo SPECT/PET)
T1 sequence (Q04609 whole entry): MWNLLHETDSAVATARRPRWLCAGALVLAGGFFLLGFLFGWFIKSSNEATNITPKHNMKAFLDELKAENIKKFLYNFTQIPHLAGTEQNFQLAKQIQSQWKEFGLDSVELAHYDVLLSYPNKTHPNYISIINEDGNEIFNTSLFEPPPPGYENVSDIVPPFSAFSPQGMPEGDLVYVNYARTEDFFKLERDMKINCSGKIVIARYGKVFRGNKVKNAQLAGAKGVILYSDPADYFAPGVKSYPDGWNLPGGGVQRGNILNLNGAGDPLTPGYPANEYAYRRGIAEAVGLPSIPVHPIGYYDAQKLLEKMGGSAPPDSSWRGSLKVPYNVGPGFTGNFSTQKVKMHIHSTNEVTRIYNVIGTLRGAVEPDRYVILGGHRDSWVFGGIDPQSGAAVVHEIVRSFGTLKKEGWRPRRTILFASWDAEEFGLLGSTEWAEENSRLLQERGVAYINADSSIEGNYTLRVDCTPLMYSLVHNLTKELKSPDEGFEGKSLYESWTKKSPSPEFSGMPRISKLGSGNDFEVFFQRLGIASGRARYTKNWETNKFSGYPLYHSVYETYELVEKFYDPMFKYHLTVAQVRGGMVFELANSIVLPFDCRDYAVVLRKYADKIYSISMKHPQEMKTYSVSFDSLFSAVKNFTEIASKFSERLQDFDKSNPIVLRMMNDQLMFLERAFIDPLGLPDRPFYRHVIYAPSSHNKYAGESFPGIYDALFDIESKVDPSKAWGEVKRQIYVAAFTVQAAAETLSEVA
Text: as §2

[5] = biological target: T2, PSMA protein (LNCaP cells) (Homo sapiens, UniProt Q04609); experiment: affinity by studies of competence in PSMA-positive cancer cells (LNCaP); assay type: binding; details: competition in LNCaP cells
T2 construct: endogenous in cells; host or cells: LNCaP
T2 sequence (Q04609 whole entry): as above

balb-C laboratory mice = experiment: toxicity in balb-C laboratory mice; assay type: in vivo; details: dose of 40 mg/kg
Text: as §2

radiochemical purity 24 h after labeling (stability) [1] | radiochemical stability in human serum [2] [%] | capture in the tumors (LNCaP tumors) [% ID/g] | mean effective dose [3] [mSv] | Compound | route of elimination (LNCaP tumors) | biokinetics (clearance and organ capture) [3] | ability to detect in vivo overexpressed PSMA (SPECT image, FIG. 5) ([4]; patient with prostate cancer) | detection of tumors and metastases (PET and SPECT image, FIG. 6) [4] | IC50 [5] [nM] | toxicity or adverse effects (balb-C laboratory mice)
greater than 95% | > 90 | 8.7±1.3 | 4±2 | 99mTc-ethylenediaminediacetic acid/hydrazinonicotinamide-inhibitor of prostate-specific membrane antigen [99mTc-EDDA/HYNIC-iPSMA] | mainly with elimination by the renal route | rapid clearance from the blood with greater capture and renal excretion, lower hepatic capture and high capture in the parathyroid, salivary and lacrimal glands | confirming the ability of the radiopharmaceutical to detect in vivo PSMA overexpressed in prostate cancer cells | detect tumors and metastases of prostate cancer with high sensitivity |  | 
 |  |  |  | O=C([O-])CN1CCN(CC(=O)[O-])CCN(CC(=O)NC[C@H]2CC[C@H](C(=O)N[C@@H](Cc3ccc4ccccc4c3)C(=O)NCCCC[C@H](NC(=O)N[C@@H](CCC(=O)O)C(=O)O)C(=O)O)CC2)CCN(CC(=O)[O-])CC1.[68Ga+3] [68Ga-PSMA-617, reference compound] |  |  |  | detect tumors and metastases of prostate cancer with high sensitivity |  | 
 |  |  |  | NNc1ccc(C(=O)N[C@@H](Cc2ccc3ccccc3c2)C(=O)NCCCC[C@H](NC(=O)N[C@@H](CCC(=O)O)C(=O)O)C(=O)O)cn1 [HYNIC-iPSMA, Glu-NH—CO—NH-Lys(β-naphthyl alanine)-HYNIC] |  |  |  |  | 2.9 ± 0.7 | did not display toxicity or adverse effects
